Data from patent publication US7696408B2, “Method to enhance Agrobacterium-mediated transformation of plants” (Regents of the University of Minnesota, priority 1999, dated 2010).
Entries after “also recorded” stand apart in the source; their conditions may differ.

Key:
Format in all cases: cell-based, Glycine max
[1] = tested on: soybean cot-node explants; assay: De novo shoot production on explants at four weeks on shoot induction media; conditions: for explants producing de novo shoots at four weeks: Experiment #1, Bert; for de novo shoot growth: Experiment #2, MN1301; for explants developing de novo shoots: Experiment #3, MN0901
Text: The explants were removed from the chamber after 14 days and transferred to fresh shoot induction media containing herbicide selection. During the transfer, the hypocotyl was carefully removed from the developing shoot mass and imbedded into the media with the differentiating tissue flush with the media surface. The plates were placed back into the growth chamber for an additional 2 weeks. At the 4 week time point, explants without de novo shoot production were discarded. The cotyledons were then removed from the differentiating tissue by cutting at the base of the node and the callus trimmed before transferring into shoot elongation media containing MS salts (murashige and Skoog, 1962), MSIII iron stock, 3% sucrose, 3 mM MES, 0.8% agar, and filter sterilized B5 vitamins, 50 mg/l asparagine, 100 mg/l pyroglutamic acid, 1 mg/l zeatin riboside, 0.1 mg/l indole-acetic acid, 0.5 mg/l GA3, 100 mg/l cefotaxime, 500 mg/l ticarcillin, 1.3-5 mg/l PPT; pH 5.6). Also at this time, a percentage of the explants were sliced into about 10 sections and stained for both GUS positive sectors and GUS positive shoots. Every 2 weeks the explants were transferred into new shoot elongation media after removing dead plant tissue and the bottom of the explant cut to encourage shoot elongation of transformed shoots.
Five levels of cysteine were tested: 0 mg/l, 100 mg/l, 200 mg/l, 300 mg/l, and 400 mg/l. Cysteine was incorporated into the solid co-culture media by preparing the media as described hereinabove and dissolving the L-cysteine into the filter sterilized components. For these three experiments, no cysteine was added into the liquid co-cultivation media. To reduce experimental error, explants were placed randomly on all five different treatments and all plates within a treatment were shuffled after completion of the experiment. After co-cultivation, the explants in each treatment were placed on shoot induction media with ½ the concentration of cysteine as in the co-cultivation media. The specific details for each experiment are as follows: • 1. Experiment #1 used the Minnesota genotype Bert and Agrobacterium strain AGL1 containing the BSF16 binary plasmid. A total of 276 explants were wounded and infected with Agrobacterium. After co-cultivation, 10 explants of each treatment were immersed into GUS stain and assayed for transient expression and the remaining explants were washed and transferred to shoot induction media containing 1.33 mg/l PPT for all four weeks. De novo shoots were produced on 74% of the treatments containing 0 mg/l cysteine, 57% on 100 mg/l, 63% on 200 mg/l, 70% on 300 mg/l, and 77% on 400 mg/l at four weeks. […] Experiment #2 used the Minnesota genotype MN1301 and Agrobacterium strain AGL1 containing the BSF16 binary plasmid. A total of 229 explants were dissected, cut, and inoculated. For each cysteine-treatment, half of the explants were incubated during co-cultivation at 21-22° C. and the other half at 25° C. Five explants of each cysteine/temperature treatment were sacrificed to GUS stain and the remaining transferred to fresh shoot induction media containing 1.33 mg/l PPT for 2 weeks. The herbicide level was raised to 3.33 mg/l PPT for the second 2 weeks on shoot induction media. Because of poor de novo shoot growth (35% on 0 mg/l cysteine, 22.8% on 100 mg/l, 32% on 200 mg/l, 42% on 300 mg/l, and 28% on 400 mg/l) and contamination, all explants were sacrificed to GUS stain at the 4 week time point. • 3. Experiment #3 used the Minnesota genotype MN0901 and Agrobacterium strain AGL1 containing the BSF16 binary plasmid. Seedlings were germinated as usual, however, one half of the plates were placed at 4° C. for 24 hours before inoculation. A total of 390 explants were wounded and inoculated. For each cysteine/seedling-temperature treatment, one half of the explants were incubated during co-cultivation at 21-22° C. and the other half at 25° C. […]

[2] = tested on: soybean cot-node explants; assay: GUS transient expression on soybean cot-node explants after 5-day co-cultivation with Agrobacterium (T-DNA delivery)
[3] = tested on: soybean cot-node explants; assay: De novo shoot production on explants at four weeks on shoot induction media; conditions: Experiment #4, Bert

N[C@@H](CS)C(=O)O [L-cysteine]
explants producing de novo shoots at four weeks ([1]; 100 mg/l cysteine, control 74%): 57% | explants producing de novo shoots at four weeks ([1]; 200 mg/l cysteine): 63% | explants producing de novo shoots at four weeks ([1]; 300 mg/l cysteine): 70% | explants producing de novo shoots at four weeks ([1]; 400 mg/l cysteine): 77% | de novo shoot growth ([1]; 100 mg/l cysteine, control 35%): 22.8% | de novo shoot growth ([1]; 200 mg/l cysteine): 32% | de novo shoot growth ([1]; 300 mg/l cysteine): 42% | de novo shoot growth ([1]; 400 mg/l cysteine): 28% | explants developing de novo shoots ([1]; 100 mg/l cysteine, control 64%): 53% | explants developing de novo shoots ([1]; 200 mg/l cysteine): 54% | explants developing de novo shoots ([1]; 300 mg/l cysteine): 53% | explants developing de novo shoots ([1]; 400 mg/l cysteine): 61% | infection in genotypes that respond poorly to the cot-node method ([2]; 400 mg/l cysteine, MN1401, Granite, Lambert, MN1801, MN0301): significant increase in infection | GUS+ foci on 5 day explants, cysteine only in liquid media ([2]; cysteine added only to liquid Agrobacterium culture (YEP) or liquid co-cultivation medium): did not increase; also recorded: no increases detected | explants that developed de novo shoots ([3]; 0S,400L): 75% | explants that developed de novo shoots ([3]; 400L,0S (mg/l cysteine liquid, solid), control 0L,0S 76%): 47% | explants that developed de novo shoots ([3]; 400L,400S): 68%
